Values quoted from earlier work as cited in patent publication US6627219B2, “Oily capsule preparation and the method for preparing same” (Pharmaceutical Industry Technology and Development Center, priority 2000, dated 2003).
Read-outs that look alike come from different tables or passages of the source.

Key:
[1] = not given; remark: listed apart in the source

stability (basic medium of a pH higher than 7): stable
stability (neutral or acid medium): easily degraded or denatured
solubility in water [1]: hardly soluble in water
SMILES: COc1ccc2[nH]c([S+]([O-])Cc3ncc(C)c(OC)c3C)nc2c1 (stereo not drawn) [Omeprazole, 5-methoxy-2(((4-methoxy-3,5-dimethyl-2-pyridinyl)methyl)sulfinyl)1H-benzimidazole]
